The values that follow come from paper PMC9604388, “Purification and Functional Characterization of a Soluble Trehalase in Lissorhoptrus oryzophilus (Coleoptera: Curculionidae)” (Insects, 2022).

The assay relates to T1, LoTRE1.
T1 construct: whole coding region incl. predicted signal peptide (1-25) by primers (ORF 1839 bp, 612 aa, 70833 Da); E. coli Rosetta (DE3), Ni-NTA; ~70 kDa
The assay can be described thus: […],5-dinitrosalicylic acid assay of released glucose. The assay is classed as biochemical, Lissorhoptrus oryzophilus. As to conditions: PBS, pH 7.0, 50 °C, 30 min; substrate 1-10 mmol/L (Km above tested range).

As to `OC[C@H]1O[C@H](O[C@H]2O[C@H](CO)[C@@H](O)[C@H](O)[C@H]2O)[C@H](O)[C@@H](O)[C@@H]1O` [trehalose], the Km amounted to 48.6 mM.

For orientation: Km means the concentration of substrate that gives half-maximal velocity.
